According to the supplement of paper PMC10307832:

Columns and labels:
Assay in all cases: relative viability (nuclei count vs DMSO), 5 days (fraction); higher = more cells survive
Wnt-C59 + Pictilisib = compound: CC1=NC=CC(=C1)C2=CC=C(C=C2)CC(=O)NC3=CC=C(C=C3)C4=CN=CC=C4 [Wnt-C59] + CS(=O)(=O)N1CCN(Cc2cc3nc(-c4cccc5[nH]ncc45)nc(N4CCOCC4)c3s2)CC1 [Pictilisib] (partner 1 µM)
Summary of the method: (§1)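 Dosing by pin tool came one day after lung cancer cell lines were seeded in 1536-well plates, using either one drug or a fixed anchor-drug dose plus five library-drug doses (not always all listed) in √10 steps. After 5 days, nuclei were counted on 4× images. Relative viability is treated-well nuclei count divided by vehicle-well nuclei count, and values are medians of duplicate plates.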

Lapatinib + Bortezomib = compound: CS(=O)(=O)CCNCc1ccc(-c2ccc3ncnc(Nc4ccc(OCc5cccc(F)c5)c(Cl)c4)c3c2)o1 [Lapatinib] + CC(C)C[C@H](NC(=O)[C@H](Cc1ccccc1)NC(=O)c1cnccn1)B(O)O [Bortezomib] (partner 0.002 µM)
Summary of the method: as §1

Lapatinib + AZD7762 = compound: CS(=O)(=O)CCNCc1ccc(-c2ccc3ncnc(Nc4ccc(OCc5cccc(F)c5)c(Cl)c4)c3c2)o1 [Lapatinib] + NC(=O)Nc1cc(-c2cccc(F)c2)sc1C(=O)N[C@H]1CCCNC1 [AZD7762] (partner 0.2 µM)
Summary of the method: as §1

Lapatinib + Pemetrexed = compound: CS(=O)(=O)CCNCc1ccc(-c2ccc3ncnc(Nc4ccc(OCc5cccc(F)c5)c(Cl)c4)c3c2)o1 [Lapatinib] + Nc1nc2[nH]cc(CCc3ccc(C(=O)N[C@@H](CCC(=O)O)C(=O)O)cc3)c2c(=O)[nH]1 [Pemetrexed] (partner 0.2 µM)
Summary of the method: as §1

Cell Line	relative viability (Wnt-C59 + Pictilisib; first compound 0.001 µM)	relative viability (Wnt-C59 + Pictilisib; first compound 0.01 µM)	relative viability (Wnt-C59 + Pictilisib; first compound 0.03162 µM)	relative viability (Wnt-C59 + Pictilisib; first compound 0.1 µM)	relative viability (Lapatinib + Bortezomib; first compound 0.02 µM)	relative viability (Lapatinib + Bortezomib; first compound 0.06325 µM)	relative viability (Lapatinib + Bortezomib; first compound 0.2 µM)	relative viability (Lapatinib + Bortezomib; first compound 0.6325 µM)	relative viability (Lapatinib + Bortezomib; first compound 2 µM)	relative viability (Lapatinib + AZD7762; first compound 0.02 µM)	relative viability (Lapatinib + AZD7762; first compound 0.06325 µM)	relative viability (Lapatinib + AZD7762; first compound 0.2 µM)	relative viability (Lapatinib + AZD7762; first compound 0.6325 µM)	relative viability (Lapatinib + AZD7762; first compound 2 µM)	relative viability (Lapatinib + Pemetrexed; first compound 0.02 µM)	relative viability (Lapatinib + Pemetrexed; first compound 0.06325 µM)	relative viability (Lapatinib + Pemetrexed; first compound 0.2 µM)	relative viability (Lapatinib + Pemetrexed; first compound 0.6325 µM)	relative viability (Lapatinib + Pemetrexed; first compound 2 µM)
NCI-H1666	0.43	0.218	0.479	0.477	0.761	0.619	0.848	0.877	0.378	0.573	0.815	0.762	0.778	0.619	0.858	0.789	0.851	0.841	0.67
NCI-H1734	0.438	0.438	0.473	0.461		0.839	1.02	0.993	0.862		0.42	0.587	0.507	0.541		0.422	0.411	0.425	0.383
NCI-H1755	0.374	0.433	0.459	0.433	0.807	0.919	0.997	0.984	0.874	0.449	0.402	0.371	0.433	0.541	0.423	0.405	0.49	0.451	0.439
NCI-H1792	0.273	0.25	0.225	0.332	0.892	0.718	0.922	0.923	1.02			0.568	0.665	0.365			0.936	0.75	0.656
NCI-H1915	0.97	0.922	0.837	0.958		0.973	1.04	0.915	0.953		0.71	0.685	0.705	0.592		0.457	0.456	0.465	0.473
NCI-H1975	0.282	0.294	0.326	0.282	0.467	0.358	0.407	0.405	0.32	0.821	0.592	0.617	0.538	0.5	0.316	0.298	0.287	0.283	0.284
NCI-H1993	0.979	0.833	0.902	0.84	0.88		0.871	0.889	0.627	0.615		0.86	0.499	0.455	0.595		0.578	0.607	0.543
NCI-H2085	0.502	0.449	0.41	0.45	0.667	0.979	0.998	0.994	1.02	0.881	0.886	0.929	0.797	0.526	0.743	0.806	0.911	0.847	0.605
NCI-H2087	0.94	0.816	0.819	0.907	0.445	0.738	0.832	0.679	0.761	1.5	1.47	1.17	1.36	1.25	0.646	0.636	0.599	0.616	0.513
NCI-H2126	0.451	0.446	0.489	0.479		1.05	1.04	1.03	1.03	0.55	0.927	0.983	0.975	0.928	0.379	0.484	0.655	0.672	0.607
NCI-H2347	0.628	0.566	0.86	0.634		1.17	0.87	0.796	1	0.495	0.705	0.637	0.81	0.612		0.421	0.417	0.436	0.504
NCI-H2405	0.433		0.406	0.432	0.66	0.946	1.06	0.963	0.854		0.682		0.759	0.617		0.977		1.04	1.01
NCI-H3122	0.61	0.642	0.626	0.518	0.927	1	0.965	0.972	1.02	0.959	0.9	0.999	1.04	0.973	0.212	0.199	0.206	0.197	0.193
PC-3 [JPC-3]	0.832	0.765	0.822	0.72		0.796	0.818	0.864	0.837		0.477		0.655	0.414		1.13		0.995	0.588
PC-14	0.761	0.665	0.715	0.553	0.799	0.936	0.835	0.898	0.661	0.362	0.331	0.301	0.295	0.138	0.151	0.117	0.167	0.133	0.129
RERF-LC-KJ	0.574	0.543	0.627	0.54	0.911	0.948	1.02	0.983	0.766	0.391	0.936	0.717	0.877	0.707	0.39	0.472	0.466	0.444	0.459
